Tested on: wild type HBV genomes population
Experiment: Phenotypic drug susceptibility assay: Huh7 cells transfected with type-I vector clones, Southern blot of intracellular replicative HBV DNA intermediates
Details: Hepatitis B virus, Huh-7, read-out: IC50 (intracellular replicative HBV DNA intermediates)

## Nc1ccn([C@@H]2CS[C@H](CO)O2)c(=O)n1 [lamivudine, β-L-(−)-2′,3′-dideoxy-3′-thiacytidine]
  IC50: < 100 nM

Source: patent publication US20060240405A1, “Method for assaying replication of hbv and testing ... drugs” (priority 2002, published 2006)
